From US11833137B2, “Substituted chromenones, IRE1 inhibitors, and methods of using same” (The Wistar Institute, priority 2018, dated 2023)

Columns and labels:
[1] = test system: XBP-1s expression, 5TGM1 cells; test: XBP-1s immunoblot in 5TGM1 multiple myeloma cells; format: cell-based, mouse
Outline: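 5TGM1 mouse myeloma cells, with constitutively active IRE1/XBP-1, grown in RPMI 1640 with 10% FBS and β-ME at 37° C. Lysed in RIPA buffer, protein by BCA, then SDS-PAGE, nitrocellulose transfer, immunoblot with HRP secondaries and chemiluminescent detection.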

[2] = test system: CLL cells in PBMCs; test: CLL burden in B-I09-injected MD4+/−/Eμ-TCL1+/+ mice; format: in vivo, mouse; conditions: 50 mg/kg intraperitoneally, days 1-5 and 8-12
Protocol: FIGS. 24A-24J illustrate the finding that targeting XBP-1s in CLL cells of MD4^+/−/Eμ-TCL1^+/+ mice leads to reduced production of sIgM, and decreased numbers and function of granulocytic MDSCs. (FIG. 24A) The levels of IgM in the sera of MD4^+/−/Eμ-TCL1^+/+ and XBP-1^KO/MD4^+/−/Eμ-TCL1^+/+ mice were determined by ELISA. (FIG. 24B) Blood cells collected from MD4^+/−/Eμ-TCL1^+/+ and XBP-1^KO/MD4^+/−/Eμ-TCL1^+/+ mice were treated with RBC lysis buffer, and stained with CD11c-BV421, CD11b-PE, Ly6C-Alexa 488 and Ly6G-Alexa 647. Gated CD11c−/CD11b+ populations were analyzed for Ly6C^intermediate/Ly6G+ granulocytic MDSCs and Ly6C+/Ly6G− monocytic MDSCs. […] Gated CD11b+/Ly6C^intermediate/Ly6G+ granulocytic MDSCs were analyzed for the expression of Arg-1. (FIG. 24F) Mean fluorescence intensity (MFI) of Arg-1 in gated CD11b+/Ly6C^intermediate/Ly6G+ granulocytic MDSCs from spleens of 5 MD4^+/−/Eμ-TCL1^+/+ and 5 XBP-1^KO/MD4^+/−/Eμ-TCL1^+/+ mice was plotted as mean±SEM. […] The ^3H-thymidine uptake was measured, and the percentages of proliferation were calculated by comparing to the positive control and plotted as mean±SEM. […] The percentage of CLL cells in PBMCs for each mouse was determined by flow cytofluorometry on day 6 and day 13, and compared with the CLL burden data of the mouse on day 0 (100%). […]

[3] = test system: WaC3 cells; conditions: cited from earlier work
[4] = test system: XBP-1s expression, CD5+ CLL cells from Eμ-TCL1 mice; conditions: cited from earlier work

O=c1oc2c(C3OCCCO3)c(O)ccc2c2c1CNCC2 [Compound 4, 7-(1,3-dioxan-2-yl)-8-hydroxy-1,2,3,4-tetrahydro-5H-chromeno[3,4-c]pyridin-5-one]
suppression of XBP-1s expression, long term ([1]; 10 μM for a course of 3 days): continuously suppressed even after 3-day treatment
concentration that effectively blocks XBP-1s expression ([1]; 24 h): 5 µM
suppression of XBP-1s expression ([1]; 24 h, at 5 μM): more potent than 5
CLL burden in peripheral blood [2]: leukemic regression was observed
sensitivity of WaC3 cells [3]: sensitive
expression of XBP-1s in CLL cells [4]: can inhibit the expression of XBP-1s in CLL cells
